Results as given in the supplement of paper PMC4862054.

The compounds below were run on MFM-223 (assay: normalised response (% of control), CellTiter-Glo; higher = more viable cells (100 = DMSO, 0 = benzethonium chloride kill control)). Settings: incubation time: 72 h.
Summary of the method: (§1)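 A 20 µl suspension of breast cancer cells was seeded into each well of 384-well plates containing compound at 5 concentrations in 10-fold steps over a compound-specific 10,000-fold range. After 72 h incubation, CellTox Green fluorescence (485/520 nm) was read first, and CellTiter-Glo luminescence was read after 10 min at room temperature. Each plate was normalised against 0.1 % DMSO (100) and a positive kill control (0), and each value is the normalised signal at one concentration.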

Question: COc1cc2c(cc1-c1c(C)noc1C)ncc1[nH]c(=O)n([C@H](C)c3ccccn3)c12 [I-BET151] (1 nM) was tested. Which normalised response did it give?
Answer: 97.8%

Question: How did the normalised response turn out when CC(C)n1nc(-c2ccc3oc(N)nc3c2)c2c(N)ncnc21 [INK128] (0.1 nM) was run?
Answer: 89.8%

Question: CC(C)n1nc(-c2ccc3oc(N)nc3c2)c2c(N)ncnc21 [INK128] (1 nM) was tested. Which normalised response did it give?
Answer: 90.1%

Question: Which normalised response does the source give for O=NN(CCCl)C(=O)NC1CCCCC1 [Lomustine] (10 nM) here?
Answer: 104%

Question: Which normalised response does the source give for O=C(O)CC[C@H]1CC[C@@](c2cc(F)ccc2F)(S(=O)(=O)c2ccc(Cl)cc2)CC1 [MK-0752] (1 nM) here?
Answer: 112%

Question: Which normalised response does the source give for NC1(c2ccc(-c3nc4ccn5c(=O)[nH]nc5c4cc3-c3ccccc3)cc2)CCC1 [MK-2206] (1 nM) here?
Answer: 109%

Question: Which normalised response does the source give for NC(=O)c1cccc2cn(-c3ccc([C@@H]4CCCNC4)cc3)nc12 [MK-4827] (10 nM) here?
Answer: 104%

Question: For N[C@@H](Cc1ccc(N(CCCl)CCCl)cc1)C(=O)O [Melphalan] (1.25 nM), which normalised response is on record?
Answer: 95.1%

Question: N[C@@H](Cc1ccc(N(CCCl)CCCl)cc1)C(=O)O [Melphalan] (12.5 nM) was tested. Which normalised response did it give?
Answer: 99.5%

Question: Which normalised response does the source give for O=C(c1cc(Cc2n[nH]c(=O)c3ccccc23)ccc1F)N1CCN(C(=O)C2CC2)CC1 [Olaparib] (10 nM) here?
Answer: 93%

These compounds were tested on MDA-MB-453 in the same assay as above. Settings: incubation time: 72 h.
Summary of the method: as §1

Question: Which normalised response does the source give for Cc1c(C(=O)Nc2ccc(N3C[C@@H](C)O[C@@H](C)C3)nc2)cccc1-c1ccc(OC(F)(F)F)cc1 [Erismodegib] (1 nM) here?
Answer: 96.1%

Question: For Cc1c(C(=O)Nc2ccc(N3C[C@@H](C)O[C@@H](C)C3)nc2)cccc1-c1ccc(OC(F)(F)F)cc1 [Erismodegib] (10 nM), which normalised response is on record?
Answer: 81.8%

Question: With CC(C)C(=O)Nc1ccc([N+](=O)[O-])c(C(F)(F)F)c1 [Flutamide] (10 nM) as the compound, how does the normalised response read?
Answer: 109%

Question: For COc1cc2c(Oc3ccc(NC(=O)C4(C(=O)Nc5ccc(F)cc5)CC4)cc3F)ccnc2cc1OCCCN1CCOCC1 [Foretinib] (1 nM), which normalised response is on record?
Answer: 108%

Question: For COc1cc(Nc2ncc(F)c(Nc3ccc4c(n3)N(COP(=O)(O)O)C(=O)C(C)(C)O4)n2)cc(OC)c1OC [Fostamatinib] (0.25 nM), which normalised response is on record?
Answer: 99.4%

Question: COc1cc(Nc2ncc(F)c(Nc3ccc4c(n3)N(COP(=O)(O)O)C(=O)C(C)(C)O4)n2)cc(OC)c1OC [Fostamatinib] (2.5 nM) was tested. Which normalised response did it give?
Answer: 104%

Question: CC(C)NC[C@@H](C(=O)N1CCN(c2ncnc3c2[C@H](C)C[C@H]3O)CC1)c1ccc(Cl)cc1 [GDC-0068] (1 nM) was tested. Which normalised response did it give?
Answer: 102%

Question: How did the normalised response turn out when CCCc1cc(C)[nH]c(=O)c1CNC(=O)c1cc(-c2ccnc(N3CCN(C)CC3)c2)cc2c1cnn2C(C)C [GSK343] (1 nM) was run?
Answer: 99.5%

Question: Which normalised response does the source give for CCCc1cc(C)[nH]c(=O)c1CNC(=O)c1cc(-c2ccnc(N3CCN(C)CC3)c2)cc2c1cnn2C(C)C [GSK343] (10 nM) here?
Answer: 94.2%

Question: NC(=O)NO [Hydroxyurea] (100 nM) was tested. Which normalised response did it give?
Answer: 112%

Question: For COc1cc2c(cc1-c1c(C)noc1C)ncc1[nH]c(=O)n([C@H](C)c3ccccn3)c12 [I-BET151] (1 nM), which normalised response is on record?
Answer: 102%

Question: CC(C)n1nc(-c2ccc3oc(N)nc3c2)c2c(N)ncnc21 [INK128] (0.1 nM) was tested. Which normalised response did it give?
Answer: 101%

Question: With CC(C)n1nc(-c2ccc3oc(N)nc3c2)c2c(N)ncnc21 [INK128] (1 nM) as the compound, how does the normalised response read?
Answer: 88.3%

Question: How did the normalised response turn out when O=NN(CCCl)C(=O)NC1CCCCC1 [Lomustine] (10 nM) was run?
Answer: 106%

Question: For O=C(O)CC[C@H]1CC[C@@](c2cc(F)ccc2F)(S(=O)(=O)c2ccc(Cl)cc2)CC1 [MK-0752] (1 nM), which normalised response is on record?
Answer: 111%

Question: How did the normalised response turn out when NC1(c2ccc(-c3nc4ccn5c(=O)[nH]nc5c4cc3-c3ccccc3)cc2)CCC1 [MK-2206] (1 nM) was run?
Answer: 100%

Question: How did the normalised response turn out when NC(=O)c1cccc2cn(-c3ccc([C@@H]4CCCNC4)cc3)nc12 [MK-4827] (10 nM) was run?
Answer: 105%

Question: How did the normalised response turn out when N[C@@H](Cc1ccc(N(CCCl)CCCl)cc1)C(=O)O [Melphalan] (1.25 nM) was run?
Answer: 93.3%

Question: For N[C@@H](Cc1ccc(N(CCCl)CCCl)cc1)C(=O)O [Melphalan] (12.5 nM), which normalised response is on record?
Answer: 104%

Question: Which normalised response does the source give for O=C(c1cc(Cc2n[nH]c(=O)c3ccccc23)ccc1F)N1CCN(C(=O)C2CC2)CC1 [Olaparib] (10 nM) here?
Answer: 97.8%

Each compound was assayed on HCC1937 in the same assay as above. Settings: incubation time: 72 h.
Summary of the method: as §1

Question: With Cc1c(C(=O)Nc2ccc(N3C[C@@H](C)O[C@@H](C)C3)nc2)cccc1-c1ccc(OC(F)(F)F)cc1 [Erismodegib] (1 nM) as the compound, how does the normalised response read?
Answer: 96.1%

Question: Cc1c(C(=O)Nc2ccc(N3C[C@@H](C)O[C@@H](C)C3)nc2)cccc1-c1ccc(OC(F)(F)F)cc1 [Erismodegib] (10 nM) was tested. Which normalised response did it give?
Answer: 96.3%

Question: For CC(C)C(=O)Nc1ccc([N+](=O)[O-])c(C(F)(F)F)c1 [Flutamide] (10 nM), which normalised response is on record?
Answer: 102%

Question: With COc1cc2c(Oc3ccc(NC(=O)C4(C(=O)Nc5ccc(F)cc5)CC4)cc3F)ccnc2cc1OCCCN1CCOCC1 [Foretinib] (1 nM) as the compound, how does the normalised response read?
Answer: 95%

Question: Which normalised response does the source give for COc1cc(Nc2ncc(F)c(Nc3ccc4c(n3)N(COP(=O)(O)O)C(=O)C(C)(C)O4)n2)cc(OC)c1OC [Fostamatinib] (0.25 nM) here?
Answer: 106%

Question: With COc1cc(Nc2ncc(F)c(Nc3ccc4c(n3)N(COP(=O)(O)O)C(=O)C(C)(C)O4)n2)cc(OC)c1OC [Fostamatinib] (2.5 nM) as the compound, how does the normalised response read?
Answer: 99.6%

Question: How did the normalised response turn out when CC(C)NC[C@@H](C(=O)N1CCN(c2ncnc3c2[C@H](C)C[C@H]3O)CC1)c1ccc(Cl)cc1 [GDC-0068] (1 nM) was run?
Answer: 102%

Question: How did the normalised response turn out when CCCc1cc(C)[nH]c(=O)c1CNC(=O)c1cc(-c2ccnc(N3CCN(C)CC3)c2)cc2c1cnn2C(C)C [GSK343] (1 nM) was run?
Answer: 93.4%

Question: With CCCc1cc(C)[nH]c(=O)c1CNC(=O)c1cc(-c2ccnc(N3CCN(C)CC3)c2)cc2c1cnn2C(C)C [GSK343] (10 nM) as the compound, how does the normalised response read?
Answer: 103%

Question: NC(=O)NO [Hydroxyurea] (100 nM) was tested. Which normalised response did it give?
Answer: 96%

Question: COc1cc2c(cc1-c1c(C)noc1C)ncc1[nH]c(=O)n([C@H](C)c3ccccn3)c12 [I-BET151] (1 nM) was tested. Which normalised response did it give?
Answer: 96.6%

Question: CC(C)n1nc(-c2ccc3oc(N)nc3c2)c2c(N)ncnc21 [INK128] (0.1 nM) was tested. Which normalised response did it give?
Answer: 89.1%

Question: CC(C)n1nc(-c2ccc3oc(N)nc3c2)c2c(N)ncnc21 [INK128] (1 nM) was tested. Which normalised response did it give?
Answer: 96.9%

Question: For O=NN(CCCl)C(=O)NC1CCCCC1 [Lomustine] (10 nM), which normalised response is on record?
Answer: 102%

Question: Which normalised response does the source give for O=C(O)CC[C@H]1CC[C@@](c2cc(F)ccc2F)(S(=O)(=O)c2ccc(Cl)cc2)CC1 [MK-0752] (1 nM) here?
Answer: 98.7%

Question: Which normalised response does the source give for NC1(c2ccc(-c3nc4ccn5c(=O)[nH]nc5c4cc3-c3ccccc3)cc2)CCC1 [MK-2206] (1 nM) here?
Answer: 92.6%

Question: How did the normalised response turn out when NC(=O)c1cccc2cn(-c3ccc([C@@H]4CCCNC4)cc3)nc12 [MK-4827] (10 nM) was run?
Answer: 96.9%
